We go through 3 compounds from patent US4727082A, “Dihydropyridine compounds and pharmaceutical compositions containing them” (Yamanouchi Pharmaceutical Co., Ltd., priority 1984, dated 1988).

For assay [1], the target named is T1, Beta-adrenoceptor (Rattus norvegicus, UniProt P18090).
T1 construct: from tissue; host or cells: heart in situ of anesthetized male Wistar rats (in vivo, i.v. dosing)
Nature of the assay: Beta-adrenoceptor blocking effects: blockade of positive chronotropic response to isoproterenol. The format is in vivo, male Wistar rats. The note with it: 50% blockade of chronotropic response to isoproterenol 0.1 μg/kg iv, reserpinized, vagotomized rats, cumulative dose, read-out: Beta Blocking ED50. Here is the method: (§1) The rats were pretreated with reserpine (8 mg/kg ip), 18 hr before experiments. […] The heart rate was measured with a cardiotachometer triggered by the QRS of the ECG (lead II) and recorded on a polygraph. After the control response to isoproterenol at a dose of 0.1 μg/kg iv was obtained, the test compound was injected iv in increasing doses at 20 min intervals.

Assay [2] concerns the target T1, Beta-adrenoceptor. The experiment in a line: Intrinsic sympathomimetic activity (ISA), increase in heart rate. In kind it is in vivo, male Wistar rats. Particulars: increase in HR, reserpinized rats, iv. As for the experimental part:
as §1
In this series of experiments, intrinsic sympathomimetic activity (ISA) was also evaluated. The results are shown in Table 1 (column 4), wherein "-" represents that an increase in HR was scarcely observed, "+" represents an increase in HR of 10 to 19 beats/min, "++" represents an increase in HR of 20 to 29 beats/min, and "+++" represents an increase in HR of above 30 beats/min.

Assay [3] concerns coronary artery. The experiment in a line: Coronary vasodilating effects, intracoronary injection in anesthetized dogs. In kind it is in vivo, Mongrel dogs. Particulars: for Duration of action of coronary vasodilating effect: intracoronary injection; for ED100 pap (dose for 100% increase of Cor. BF): intracoronary, maximum response to papaverine 300 μg ia = 100%. As for the experimental part:
Mongrel dogs of either sex were anesthetized and ventilated as previously described. A thoracotomy was performed at the 4th intercostal space. Following an intravenous injection of […] (1000 units/kg), blood from the distal end of the cannulated carotid artery was pumped into circumflex branch of the left coronary artery using a servocontrolled peristaltic pump which maintained a constant perfusion pressure of 120 mmHg by means of a pump controller. An electromagnetic flow probe was inserted in the circuit to record blood flow through the cannulated coronary artery. The test compounds were administered directly into the rubber tubing connected close to the coronary artery cannula. Coronary vasodilating potency of the test compounds was by calculating the dose required to produce 100% increase of Cor. BF (ED100 pap), when the maximum responses to papaverine at a dose of 300 μg ia was expressed at 100% response.

Assay [4] is described as follows: Hemodynamic effects in anesthetized open-chest dogs. Particulars: Canis lupus familiaris, 0.3 mg/kg iv. In kind it is in vivo, Mongrel dogs. Here is the method:
Mongrel dogs of either sex were anesthetized with pentobarbital sodium (30 mg/kg iv). The animals were artificially ventilated with room air. The chest was opened at the left 4th intercostal space. Mean arterial blood pressure (MBP), heart rate (HR), left ventricular pressure (LVP), max. dLVP/dt, mean pulmonary arterial blood pressure (MPAP), cardiac output (CO) and coronary blood flow (Cor. BF) were measured. The test compounds were injected into the femoral vein. Hemodynamic effects of these compounds were compared with that of well known Ca^2+ -antagonists. Table 1 (column 1) indicates the percent changes of MBP and Cor. BF from control values induced by intravenous injection of test compounds.

Where [5] appears, read: read-out: Cor. BF, percent change from control.
The mark [6] stands for this setting: read-out: MBP, percent change from control.

Where two headings read alike, the source gives them in different places.

T1 sequence (P18090 whole entry): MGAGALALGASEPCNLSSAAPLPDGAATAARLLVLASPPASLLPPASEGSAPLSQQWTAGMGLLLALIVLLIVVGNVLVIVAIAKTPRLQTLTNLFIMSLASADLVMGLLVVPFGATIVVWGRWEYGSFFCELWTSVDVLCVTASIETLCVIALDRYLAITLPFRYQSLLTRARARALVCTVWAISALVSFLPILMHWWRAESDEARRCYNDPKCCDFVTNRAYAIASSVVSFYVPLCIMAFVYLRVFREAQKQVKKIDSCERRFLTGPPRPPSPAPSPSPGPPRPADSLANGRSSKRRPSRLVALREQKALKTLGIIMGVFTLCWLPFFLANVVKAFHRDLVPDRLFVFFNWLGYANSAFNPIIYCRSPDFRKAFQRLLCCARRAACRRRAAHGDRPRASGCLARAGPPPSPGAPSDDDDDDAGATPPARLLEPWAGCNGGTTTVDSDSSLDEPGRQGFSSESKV

Take `CCOC(=O)C1=C(C)NC(C)=C(C(=O)OC)C1c1cc([N+](=O)[O-])ccc1OCCCCNCC(O)COc1ccccc1` (stereo not drawn) [Example 10, ethyl methyl 4-[2-[4-(2-hydroxy-3-phenoxypropylamino)butoxy]-5-nitrophenyl]-2,6-dimethyl-1,4-dihydropyridine-3,5-dicarboxylate]: the ED50 in assay [1] stood at 0.73 mg/kg. Further, in assay [2], the ISA result is listed as “-”. For the same compound, in assay [3], the “Duration of action of coronary vasodilating effect” value (from here on “Duration”) is more than 60 min and the “ED100 pap (dose for 100% increase of Cor. BF)” value is reported as 400 μg ia. Moreover, in assay [4] (setting [5]), the change in vivo at 0.3 mg/kg came to 26%. In addition, in assay [4] (setting [6]), the change in vivo at 0.3 mg/kg was -12%.
With `COC(=O)C1=C(C)NC(C)=C(C(=O)OC)C1c1ccccc1OCCCCNCC(O)COc1ccccc1` (stereo not drawn) [Example 34, dimethyl 4-[o-[4-(2-hydroxy-3-phenoxypropylamino)butoxy]phenyl]-2,6-dimethyl-1,4-dihydropyridine-3,5-dicarboxylate], the ED50 in assay [1] was determined as 0.9 mg/kg. For the same compound, the ISA entry in assay [2] is “-”. In addition, in assay [3], the “Duration” value is more than 60 min and the “ED100 pap (dose for 100% increase of Cor. BF)” value is 175 μg ia. Also, the change in vivo at 0.3 mg/kg in assay [4] (setting [5]) was 3%. Further, the change in vivo at 0.3 mg/kg in assay [4] (setting [6]) is -18%.
As to `CCOC(=O)C1=C(C)NC(C)=C(C(=O)OCC)C1c1cc([N+](=O)[O-])ccc1OCCCCNCC(O)COc1ccccc1` (stereo not drawn) [Example 18, diethyl 4-[2-[4-(2-hydroxy-3-phenoxypropylamino)butoxy]-5-nitrophenyl]-2,6-dimethyl-1,4-dihydropyridine-3,5-dicarboxylate], the ED50 in assay [1] was found to be 3.11 mg/kg. Besides, the ISA entry in assay [2] is on record as “-”. The “Duration” value in assay [3] was determined as 60 min. In assay [3], the “ED100 pap (dose for 100% increase of Cor. BF)” value is on record as 285 μg ia. Besides, the change in vivo at 0.3 mg/kg in assay [4] (setting [5]) is 20%; in assay [4] (setting [6]), -13%.
